From patent US9364448B2, “Nitisinone for treatment of oculocutaneous/ocular albinism and for increasing pigmentation” (The United States of America, as represented by the …, priority 2010, dated 2016)

Columns and labels:
[1] = affected individuals, oral dosing; cited from earlier work
Tyr^c-h/c-h pups = experiment: Prenatal NTBC treatment of pregnant Tyr^c-h/c-h females, pup examination
Experimental: Drug Dosing and Monitoring. Ten C57BL/6J Tyr^c-2J/c-2J and ten C57BL/6Tyr^c-h/c-h mice, 3-4 months of age were designated for treatment with NTBC (Swedish Orphan Drug, Stockholm, Sweden). An equal number of age-matched controls of each genotype designated to receive vehicle treatment. NTBC was dissolved in 2 M NaOH and brought to neutral pH before administration to mice. Coat color, iris transillumination and fundus appearance were photodocumented prior to treatment. Because pigment deposition in hair is stimulated with new hair growth, a section of each mouse's coat was shaved prior to the beginning of the experiment. Drug or vehicle was given every other day via oral gavages, at a dosage of about 4 mg/kg, in a volume of about 0.2-0.3 ml. […] Coat color, iris transillumination and fundus appearance were photodocumented at the end of 1 month of treatment or vehicle dosing. For prenatal treatment experiments, pregnancy was determined by a maternal weight gain of >2 g over 7-9 days, after observing a vaginal mucus plug. Treatment with 4 mg/kg NTBC was initiated daily at day 9 or 10 of pregnancy by oral gavage, and given until birth of the litter. At that point, every-other-day oral treatment of the mother was initiated until time of weaning.

R77L mouse tyrosinase = biological target: T1, R77L mouse tyrosinase (Mus musculus, UniProt P11344, R77L); experiment: Tyrosinase protein stability in CHO cells with cycloheximide, R77L; type: cell-based; conditions: 1 mM tyrosine
T1 construct: expressed in transfected cells; host or cells: CHO cells, pcDNA3.1
T1 sequence (P11344 19-533 R77L): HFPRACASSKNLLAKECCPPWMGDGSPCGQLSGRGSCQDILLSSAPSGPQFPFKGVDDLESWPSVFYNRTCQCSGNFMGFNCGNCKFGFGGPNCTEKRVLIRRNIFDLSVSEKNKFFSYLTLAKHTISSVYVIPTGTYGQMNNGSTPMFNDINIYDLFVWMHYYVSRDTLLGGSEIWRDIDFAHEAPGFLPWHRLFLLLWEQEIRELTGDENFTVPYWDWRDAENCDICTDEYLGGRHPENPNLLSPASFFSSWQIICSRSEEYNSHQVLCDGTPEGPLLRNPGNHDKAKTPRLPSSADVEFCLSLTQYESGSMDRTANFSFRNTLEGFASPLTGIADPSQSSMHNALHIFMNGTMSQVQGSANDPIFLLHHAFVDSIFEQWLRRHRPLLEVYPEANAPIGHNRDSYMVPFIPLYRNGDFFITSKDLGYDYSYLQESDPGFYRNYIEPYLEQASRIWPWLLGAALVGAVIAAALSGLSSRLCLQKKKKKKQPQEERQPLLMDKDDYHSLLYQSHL
Experimental: In Vitro Expression and Enzyme Activity. The expression construct of mouse Tyr was a kind gift of Dr. C. Olivares from the School of Medicine of the University of Murcia (Spain). This construct was prepared in the pcDNA3.1 expression vector (Invitrogen, Carlsbad, Calif.) using EcoRI/XbaI restriction sites and based on the mouse Tyr clone obtained as described previously in C. Olivares, et al., Biochem. J., 354:131 (2001). Constructs of tyrosinase gene mutant variants, with changes corresponding to missense mutations R77L and H420R in the mouse tyrosinase protein sequence, were created using standard methodologies (Mutagenex Inc., Piscataway, N.J.). […]
Chinese hamster ovary cells (CHO) (generous gift from Dr. J. T. Wroblewski from the Pharmacology Department, Georgetown University Medical Center, Washington D.C.) were grown at a temperature of about 37° C. in DMEM media, in the presence of 10% fetal bovine serum, 1% penicillin and 4.5 g […] per 0.5 liter of media. […] The total protein content in protein lysates was determined spectrophotometrically as a 280/260 ratio. Protein expression was analyzed by Western blotting, and GAPDH was used as an internal loading control. For the analysis, Western blots were scanned, intensities of protein bands were determined, and ratios of band intensities for the wild type or mutant variants, to that of GAPDH were calculated. […]

| Compound | Half-life [1] | Fundus appearance of pups, vehicle- vs drug-treated dams (Tyr^c-h/c-h pups; Tyr^c-h/c-h, 4 mg/kg) | Congenital malformations or systemic illnesses in pups of treated mothers (Tyr^c-h/c-h pups; Tyr^c-h/c-h, 4 mg/kg prenatal treatment) | Iris pigmentation of pups on clinical examination (Tyr^c-h/c-h pups; pups of NTBC-treated Tyr^c-h/c-h mothers, 4 mg/kg, near time of weaning) | Coat color of pups (Tyr^c-h/c-h pups; pups of NTBC-treated Tyr^c-h/c-h mothers, 4 mg/kg, vs vehicle-treated mothers) | Stabilization of R77L mutant tyrosinase protein relative to GAPDH (R77L mouse tyrosinase) |
| --- | --- | --- | --- | --- | --- | --- |
| O=C1CCCC(=O)C1C(=O)c1ccc(C(F)(F)F)cc1[N+](=O)[O-] [NTBC, 2-(-2-nitro-4 trifluoromethylbenzoyl)-1,3 cyclohexanedione] | 50 to 60 h | no significant difference | no obvious congenital malformations or systemic illnesses | significant pigmentation | considerably darker |  |
| N[C@@H](Cc1ccc(O)cc1)C(=O)O [tyrosine] |  |  |  |  |  | not statistically significant |
